Reference: US20220153734A1, “Pyrazolopyridine Compounds For IRE1 Inhibition” (Optikira, LLC, priority 2019, published 2022)

Assays:
IRE1α = target: T1, IRE1α (Homo sapiens, UniProt O75460); assay: Biochemical assay: inhibition of RNase activity of IRE1α; details: enzyme 0.325 nM, substrate 100 nM, 20 minutes
T1 construct: purchased Signal Chem E31-11G
Method in brief: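 Recombinant IRE1α (0.325 nM final) pre-incubated 30 min at room temperature with compounds (10-point ½-log series, duplicate, 4% DMSO final). Then 100 nM fluorophore/quencher-labelled RNA substrate added in 50 mM Tris, 0.5 mM MgCl2, 10 mM KCl, 2 mM DTT. Urea stop after 20 min; fluorescence read; IC50 from sigmoidal fit.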

[1] = test system: ARPE-19 cells stably expressing XBP1 (a.a. 1-376); assay: Cellular XBP1 splicing assay (NanoLuc luciferase, thapsigargin); format: cell-based; details: Homo sapiens, ARPE-19, 4 h, thapsigargin 150 nM
Method in brief: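 ARPE-19 cells carrying an XBP1(1-376)-NanoLuc splicing reporter were pretreated with compound (10-point ½-log series, 0.117% DMSO) for 30 min, then stressed with 150 nM thapsigargin for 4 h at 37° C. Luminescence was read, and IC50 values came from sigmoidal fits of percent inhibition of control.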

T1 sequence (O75460 468-977 limits assumed): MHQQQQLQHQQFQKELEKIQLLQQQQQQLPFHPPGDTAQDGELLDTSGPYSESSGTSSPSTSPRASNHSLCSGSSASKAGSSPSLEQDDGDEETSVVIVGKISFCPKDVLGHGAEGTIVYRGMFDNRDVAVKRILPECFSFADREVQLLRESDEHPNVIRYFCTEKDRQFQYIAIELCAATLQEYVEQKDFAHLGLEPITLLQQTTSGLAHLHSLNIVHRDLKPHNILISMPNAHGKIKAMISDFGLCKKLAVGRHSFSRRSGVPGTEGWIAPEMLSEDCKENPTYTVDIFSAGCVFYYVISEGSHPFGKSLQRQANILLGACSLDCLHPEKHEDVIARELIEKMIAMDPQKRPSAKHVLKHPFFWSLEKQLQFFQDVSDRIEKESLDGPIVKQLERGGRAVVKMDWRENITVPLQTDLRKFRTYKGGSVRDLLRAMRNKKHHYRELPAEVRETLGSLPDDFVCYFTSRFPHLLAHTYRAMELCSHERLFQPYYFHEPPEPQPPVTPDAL

SMILES	IC50 (IRE1α) [µM]	IC50 [1] [µM]
COCCN[C@H]1CC[C@H](c2cnc(N)c3c(-c4cc(F)c(NS(=O)(=O)c5ccc(OC)cc5)cc4F)nn(C(C)C)c32)CC1 [Compound A9, N-(4-(4-amino-1-isopropyl-7-((1r,4r)-4-((2-methoxyethyl)amino)cyclohexyl)-1H-pyrazolo[4,3-c]pyridin-3-yl)-2,5-difluorophenyl)-4-methoxybenzenesulfonamide]	0.02	0.11
COCCN[C@H]1CC[C@H](c2cnc(N)c3c(-c4cc(F)c(NS(=O)(=O)c5ccccc5OC)cc4F)nn(C(C)C)c32)CC1 [Compound A10, N-(4-(4-amino-1-isopropyl-7-((1r,4r)-4-((2-methoxyethyl)amino)cyclohexyl)-1H-pyrazolo[4,3-c]pyridin-3-yl)-2,5-difluorophenyl)-2-methoxybenzenesulfonamide]	0.24	0.019
COCCN[C@H]1CC[C@H](c2cnc(N)c3c(-c4cc(F)c(NS(=O)(=O)c5cccc(OC)c5)cc4F)nn(C(C)C)c32)CC1 [Compound A11, N-(4-(4-amino-1-isopropyl-7-((1r,4r)-4-((2-methoxyethyl)amino)cyclohexyl)-1H-pyrazolo[4,3-c]pyridin-3-yl)-2,5-difluorophenyl)-3-methoxybenzenesulfonamide]	0.0089	0.015
CC(C)n1nc(-c2ccc(NS(=O)(=O)c3ccccc3F)c(F)c2)c2c(N)ncc([C@H]3CC[C@@H](NC4COC4)CC3)c21 [Compound A12, N-(4-(4-amino-1-isopropyl-7-((1s,4s)-4-(oxetan-3-ylamino)cyclohexyl)-1H-pyrazolo[4,3-c]pyridin-3-yl)-2-fluorophenyl)-2-fluorobenzenesulfonamide]	0.44	1.4
COCCN[C@H]1CC[C@H](c2cnc(N)c3c(-c4cc(F)c(NS(=O)(=O)c5ccc(F)c(OC)c5)cc4F)nn(C(C)C)c32)CC1 [Compound A13, N-(4-(4-amino-1-isopropyl-7-((1r,4r)-4-((2-methoxyethyl)amino)cyclohexyl)-1H-pyrazolo[4,3-c]pyridin-3-yl)-2,5-difluorophenyl)-4-fluoro-3-methoxybenzenesulfonamide]	0.017	0.078
COCCN[C@H]1CC[C@H](c2cnc(N)c3c(-c4cc(F)c(NS(=O)(=O)c5ccc(Cl)cc5)cc4F)nn(C(C)C)c32)CC1 [Compound A14, N-(4-(4-amino-1-isopropyl-7-((1r,4r)-4-((2-methoxyethyl)amino)cyclohexyl)-1H-pyrazolo[4,3-c]pyridin-3-yl)-2,5-difluorophenyl)-4-chlorobenzenesulfonamide]	0.021	0.24
COCCN[C@H]1CC[C@H](c2cnc(N)c3c(-c4cc(F)c(NS(=O)(=O)c5ccc(F)cc5Cl)cc4F)nn(C(C)C)c32)CC1 [Compound A15, N-(4-(4-amino-1-isopropyl-7-((1r,4r)-4-((2-methoxyethyl)amino)cyclohexyl)-1H-pyrazolo[4,3-c]pyridin-3-yl)-2,5-difluorophenyl)-2-chloro-4-fluorobenzenesulfonamide]	0.0066	0.013
COCCN[C@H]1CC[C@H](c2cnc(N)c3c(-c4cc(F)c(NS(=O)(=O)c5ccc(Cl)cc5F)cc4F)nn(C(C)C)c32)CC1 [Compound A16, N-(4-(4-amino-1-isopropyl-7-((1r,4r)-4-((2-methoxyethyl)amino)cyclohexyl)-1H-pyrazolo[4,3-c]pyridin-3-yl)-2,5-difluorophenyl)-4-chloro-2-fluorobenzenesulfonamide]	0.0078	0.077
COCCN[C@H]1CC[C@H](c2cnc(N)c3c(-c4cc(F)c(NS(=O)(=O)Cc5ccc(F)cc5)cc4F)nn(C(C)C)c32)CC1 [Compound A17, N-(4-(4-amino-1-isopropyl-7-((1r,4r)-4-((2-methoxyethyl)amino)cyclohexyl)-1H-pyrazolo[4,3-c]pyridin-3-yl)-2,5-difluorophenyl)-1-(4-fluorophenyl)methanesulfonamide]	0.0009	0.012
COCCN[C@H]1CC[C@H](c2cnc(N)c3c(-c4ccc(NS(=O)(=O)c5ccccc5F)cc4F)nn(C(C)C)c32)CC1 [Compound A18]	0.012	0.037
COCCN[C@H]1CC[C@H](c2cnc(N)c3c(-c4cc(F)c(NS(=O)(=O)c5ccccc5Cl)cc4F)nn(C(C)C)c32)CC1 [Compound A19, N-(4-(4-amino-1-isopropyl-7-((1r,4r)-4-((2-methoxyethyl)amino)cyclohexyl)-1H-pyrazolo[4,3-c]pyridin-3-yl)-2,5-difluorophenyl)-2-chlorobenzenesulfonamide]	0.0061	0.004
COCCN[C@H]1CC[C@H](c2cnc(N)c3c(-c4cc(F)c(NS(=O)(=O)Cc5ccccc5Cl)cc4F)nn(C(C)C)c32)CC1 [Compound A20, N-(4-(4-amino-1-isopropyl-7-((1r,4r)-4-((2-methoxyethyl)amino)cyclohexyl)-1H-pyrazolo[4,3-c]pyridin-3-yl)-2,5-difluorophenyl)-1-(2-chlorophenyl)methanesulfonamide]	0.0012	0.013
COCCN[C@H]1CC[C@H](c2cnc(N)c3c(-c4cc(F)c(NS(=O)(=O)c5cc(C#N)ccc5F)cc4F)nn(C(C)C)c32)CC1 [Compound A21, N-(4-(4-amino-1-isopropyl-7-((1r,4r)-4-((2-methoxyethyl)amino)cyclohexyl)-1H-pyrazolo[4,3-c]pyridin-3-yl)-2,5-difluorophenyl)-5-cyano-2-fluorobenzenesulfonamide]	0.0047	3.8
CC(C)n1nc(-c2cc(F)c(NS(=O)(=O)Cc3ccccc3F)cc2F)c2c(N)ncc([C@H]3CC[C@H](N(C)C)CC3)c21 [Compound A22, N-(4-(4-amino-7-((1r,4r)-4-(dimethylamino)cyclohexyl)-1-isopropyl-1H-pyrazolo[4,3-c]pyridin-3-yl)-2,5-difluorophenyl)-1-(2-fluorophenyl)methanesulfonamide]	0.0018	0.015
COCCN[C@H]1CC[C@H](c2cnc(N)c3c(-c4cc(F)c(NS(=O)(=O)c5c(F)cccc5F)cc4F)nn(C(C)C)c32)CC1 [Compound A23, N-(4-(4-amino-1-isopropyl-7-((1r,4r)-4-((2-methoxyethyl)amino)cyclohexyl)-1H-pyrazolo[4,3-c]pyridin-3-yl)-2,5-difluorophenyl)-2,6-difluorobenzenesulfonamide]	0.0097	0.16
COCCN[C@H]1CC[C@H](c2cnc(N)c3c(-c4cc(F)c(NS(=O)(=O)c5ccc(F)cc5F)cc4F)nn(C(C)C)c32)CC1 [Compound A24, N-(4-(4-amino-1-isopropyl-7-((1r,4r)-4-((2-methoxyethyl)amino)cyclohexyl)-1H-pyrazolo[4,3-c]pyridin-3-yl)-2,5-difluorophenyl)-2,4-difluorobenzenesulfonamide]	0.0054	0.082
COCCN[C@H]1CC[C@H](c2cnc(N)c3c(-c4cc(F)c(NS(=O)(=O)c5cccc(F)c5F)cc4F)nn(C(C)C)c32)CC1 [Compound A25, N-(4-(4-amino-1-isopropyl-7-((1r,4r)-4-((2-methoxyethyl)amino)cyclohexyl)-1H-pyrazolo[4,3-c]pyridin-3-yl)-2,5-difluorophenyl)-2,3-difluorobenzenesulfonamide]	0.009	0.025
